Test results as given in patent US20210198284A1, “GOLD COMPOSITIONS AND METHODS OF USE THEREOF” (THE UNIVERSITY OF MASSACHUSETTS, priority 2018, published 2021).
Read-outs that look alike come from different tables or passages of the source.

Legend:
A549 cells = test: Cytotoxicity assay (resazurin); assay type: cell-based; conditions: 20 h, mean±S.E.M. from two independent experiments
Method: Sample preparation. The compounds were dissolved in DMSO at 12.8 mg/mL as the stock solutions, except for compounds 9-17, which were directly dissolved in the culture medium at 12.8 mg/mL. The stock solutions were diluted by the culture medium to the testing concentration at 128 μg/mL (compound 9-17 were diluted to 1,280 μg/mL). The solutions were then serially diluted two fold in a 96-well plate and were used in the cytotoxicity assay immediately.
Cell culture and cytotoxicity assay. A549 cells (ATCC CCL-185) were cultured in high glucose DMEM (Sigma-Aldrich, D6429) supplemented with 10% FBS, 1% penicillin-streptomycin solution (Sigma-Aldrich, P4333), 1% gentamicin solution (Sigma-Aldrich, G1272) and 1% amphotericin B solution (Sigma-Aldrich, A2942) at 37° C. in a humidified atmosphere containing 5% CO2. After cells reached 80%˜90% confluency, they were detached and counted using an Invitrogen Countess automated cell counter. Cells with viability over 90% were seeded at a density of 5×10^3 cells per well in 96-well cell culture plates. After overnight culture, the culture medium in each well removed with a pipet. 80 μL of the compound solutions from each well of the 96-well plate prepared above were transferred to this 96-well plate containing the cells, and the plates were incubated for 20 h. After addition of 8 μL of 110 μg/mL resazurin, the plates were incubated for further 3 h at 37° C. in 5% CO2. The fluorescence intensity was measured using a Tecan M200 Infinite Pro microplate reader at excitation 560 nm, emission 590 nm. IC50 were calculated by curve fitting the inhibition values vs. log(concentration) using GraphPad's Prism. The cytotoxicity assays (in triplicate) were repeated twice using freshly prepared cells and compound solutions.

E. cloacae NCTC 13405 = test: Antibacterial assay, MIC/MBC by broth microdilution (CLSI); assay type: cell-based; conditions: E. cloacae NCTC 13405; for MIC: repeated twice, a/b = both values
Method: (§1) Antibacterial assay. The minimum inhibitory concentrations (MICs) and the minimum bactericidal concentrations (MBCs) were determined by the broth microdilution method as described in the CLSI (The Clinical & Laboratory Standards Institute) guidelines (Performance standards for antimicrobial susceptibility testing: Clinical and Laboratory Standards Institute (CLSI), Twenty-Fifth informational supplement. Document M100-S25: […]; Vol. 35). All bacterial strains were cultured in cation-adjusted Muller Hinton broth (CAMHB) up to log-phase and then diluted to give a concentration of 7.5×10^5 CFU/mL. The gold complexes were dissolved in DMSO or water as stock solutions, which were then serially diluted two-fold in a 96-well plate. Aliquots (100 μL) of the dilutions were mixed with equal volumes of the bacterium suspension in a 96 well plate (in triplicates). The plates were incubated at 37° C. for 18 h without shaking. Negative and positive controls were included in the same well plate with wells having the culture medium only and bacteria solution only, respectively. The sample concentration that gave inhibition values above 90% were determined as MICs as calculated from absorbance values at 600 nm (OD600) obtained using a Tecan SPARK IOM plate reader. To determine minimum bactericidal concentrations (MBCs), agar plates were treated with 5 μL sample solutions from each well, and then incubated at 37° C. for 18 h without shaking. The sample concentration that gave no colony formed on agar plates were determined as MBCs.
(§2) Selection of bacteria. The ESKAPE pathogens were chosen as they are responsible for the majority of nosocomial infections and also as they provide a good scope of strains including both Gram-negative and Gram-positive species. A. baumannii NCTC 13420 was originally identified in 24 hospitals in the UK during 2000-2003, which produced OXA-51-like β-lactamases, and was highly resistant to ampicillin, piperacillin, piperacillin/tazobactam, ceftazidime, cefotaxime, gentamicin and ciprofloxacin. P. aeruginosa NCTC13437 produces VIM-10 metallo-carbapenemase and VEB-1 (Vietnamese extended-spectrum beta-lactamase). Wild-type strain E. cloacae NCTC 13405 (originally named E. cloacae 684) was isolated from patients at the London Hospital during 1982-1983. This strain has inducible AmpC β-lactamase and is resistant to ampicillin/amoxicillin and cefoxitin. K. pneumoniae ATCC 700603 was isolated from the urine of a hospitalized patient in Richmond, Va. in 1994, and it produces SHV-18 extended spectrum beta-lactamase (ESBL). JE2 (USA300) is a methicillin-resistant S. aureus (MRSA) strain, also resistant to beta-lactams, ciprofloxacin, tetracycline, macrolides (erythromycin), lincosamides (clindamycin), streptogramin B, and mupirocin. E. faecium ATCC 700221, a positive fecal VRE (vancomycin-resistant enterococcus) isolate, is resistant to several antibiotics including vancomycin and teicoplanin. The quality control strain, Gram-negative E. coli ATCC 25922, was included in all assays and validated with ciprofloxacin and […].

[1] = test system: K. pneumoniae ATCC 700603; test: as above; assay type: cell-based; conditions: for MBC (in brackets) / MIC: K. pneumoniae ATCC 700603; for MIC: repeated twice, a/b = both values
Method: as §1, §2

A. baumannii NCTC 13420 = test: as above; assay type: cell-based; conditions: A. baumannii NCTC 13420; for MIC: repeated twice, a/b = both values
Method: as §1, §2

S. aureus JE2 (USA300) = test: as above; assay type: cell-based; conditions: S. aureus JE2 (USA300); for MIC: repeated twice, a/b = both values
Method: as §1, §2

E. coli ATCC 25922 = test: as above; assay type: cell-based; conditions: for MIC: repeated twice, a/b = both values
Method: as §1, §2

P. aeruginosa NCTC 13437 = test: as above; assay type: cell-based; conditions: P. aeruginosa NCTC 13437; for MIC: repeated twice, a/b = both values
Method: as §1, §2

E. faecalis ATCC 700221 = test: as above; assay type: cell-based; conditions: for MIC: repeated twice, a/b = both values
Method: as §1, §2

[2] = Log P determination (n-octanol/water, FAAS); conditions: for logP: Log P
Method: Log P Determination: Calibration curves. Milli-Q Water (150 mL) was added to n-octanol (150 mL), and the mixture was stirred for 3 days to allow both phases to reach saturation. The gold standard solution (1000 ppm Au in hydrochloric acid, Fisher Scientific) was diluted to 1, 2, 3, 4 and 5 ppm with n-octanol-saturated water, and the absorbance of the resulting solutions was measured by flame atomic absorption spectroscopy (FAAS, Agilent Technology 200 Series AA, equipped with a gold HC Lamp-Au coded). The absorbance data were plotted against Au concentration, and the resulting calibration curve was used for determining the concentration of the analogs in the aqueous phase.
To construct the standard calibration curve of the Au concentration in the n-octanol phase, compound 27 was used. The Au concentration in compound 27 was first calibrated against the aqueous gold standard. For this, 0.440 mg of compound 27 was weighed on a Sartorius MC5 microbalance, and then added to 22 mL of n-octanol-saturated water. […] For this, solutions of varying concentrations (0.99, 2.47, 4.94, 5.93, 9.88 ppm) of compound 27 in water-saturated n-octanol were prepared. The absorbance was measured by FAAS, and the data were plotted against the Au concentration to provide a second calibration curve, which was used for determining the Au concentration of the analogs in the n-octanol phase.
Determination of Au concentrations: Method 1. 0.5 to 1 mg of compound was weighed into a 2-mL Eppendorf tube containing 2 mL of n-octanol-saturated water. After shaking for about 4 h, the solution was centrifuged at 6000 rpm for 3 min. 1 mL of the supernatant was transferred to a new tube containing 1 mL of water-saturated n-octanol, and the mixture was shaken for 1 h. After centrifugation at 6000 rpm for 5 min, the two layers were collected and the gold concentration in each layer was determined by FAAS by comparing the absorbance to the first and second calibration curves.
Determination of Au concentrations: Method 2. […] For Method 2, 0.6 to 1 mg of compound was weighed into a 2-mL Eppendorf tube containing 1 mL of n-octanol-saturated water and 1 mL of water-saturated n-octanol. After shaking for 3-4 h, the mixture was centrifuged, and all liquid was transferred to a 15-mL tube. The liquid was then diluted with 2 mL of n-octanol-saturated saturated water and 2 mL of water-saturated n-octanol, and the mixture was shaken for another hour. After centrifugation at 6000 rpm for 5 min, the two layers were collected and the gold concentration in each layer was determined by FAAS by comparing the absorbance to the first and second calibration curves.
Log P was calculated as follows: log P=log[compound]oct/[compound]water

| Compound | IC50 against A549 cells (A549 cells) [µg/mL] | MIC (E. cloacae NCTC 13405) | MBC (in brackets) [1] | MIC [1] | MBC (in brackets) (A. baumannii NCTC 13420) | MIC (A. baumannii NCTC 13420) | MBC (in brackets) (S. aureus JE2 (USA300)) | MIC (S. aureus JE2 (USA300)) | MIC (E. coli ATCC 25922) | MBC (in brackets) (P. aeruginosa NCTC 13437) | MIC (P. aeruginosa NCTC 13437) | MBC (in brackets) (E. faecalis ATCC 700221) | MIC (E. faecalis ATCC 700221) | Log P ([2]; n-octanol/water, gold by FAAS) | MBC (in brackets) (E. cloacae NCTC 13405) | MBC (in brackets) (E. coli ATCC 25922) | Log P [2] | MIC or MIC/MBC, fold lower than auranofin ([1]; K. pneumoniae) [fold] | MIC/MBC ([1]; K. pneumoniae) [µM] | logP ([2]; n-octanol/water, gold by FAAS) |
| --- | --- | --- | --- | --- | --- | --- | --- | --- | --- | --- | --- | --- | --- | --- | --- | --- | --- | --- | --- | --- |
| (Tri-n-butylphosphine) gold chloride [Compound 30] | 4.7 ± 0.0 | >589 μM/mL | 147 (147) μM/mL | 147 (147) μM/mL | (147) μM/mL | 74/147 | 4 μM/mL | 2 μM/mL | >589 μM/mL | 74 (74) μM/mL | 74 (74) μM/mL | 5 (5) μM/mL | 5 (5) μM/mL | >3.99 | – | – | – | – | – | – |
| (1-Thio-β-D-maltosato)(triethylphosphine) gold(I) [Compound 14] | 31.0 ± 2.4 | 190 (190) μM/mL | – | >381 μM/mL | 24 (24) μM/mL | 24 (24) μM/mL | 4 (0.09) μM/mL | – | 12 (12) μM/mL | 381 (381) μM/mL | 381 (381) μM/mL | (0.4) μM/mL | – | – | 190 (190) μM/mL | 12 (12) μM/mL | −1.69 | – | – | – |
| (1-Thio-β-D-galatopyranosato)(triethylphosphine) gold(I) [Compound 10] | 16.9 ± 0.5 | 63 (63) μM/mL | 251 (251) μM/mL | 251 (251) μM/mL | 31 (31) μM/mL | 31 (31) μM/mL | (0.1) μM/mL | 0.02 μM/mL | 16 (16) μM/mL | 251 (251) μM/mL | 251 (251) μM/mL | (0.5) μM/mL | – | – | 63 (63) μM/mL | 16 (16) μM/mL | −0.73 | – | – | – |
| (4-Aminobenzenethiolato)(triethylphosphine) gold(I) [Compound 20] | 6.5 ± 1.1 | 36 (36) μM/mL | 36 (36) μM/mL | 36 (36) μM/mL | 18 (18) μM/mL | 18 (18) μM/mL | 2 (0.07) μM/mL | – | 9 (9) μM/mL | 146 (146) μM/mL | 146 (146) μM/mL | (0.1) μM/mL | 0.02 μM/mL | – | 36 (36) μM/mL | 9 (9) μM/mL | 1.36 | 10 | 36 | – |
| COc1ccc([P+]([Au-][S][C@@H]2OC(COC(C)=O)[C@@H](OC(C)=O)[C@H](OC(C)=O)C2OC(C)=O)(c2ccc(OC)cc2)c2ccc(OC)cc2)cc1 (stereo partly drawn) [Compound 38, (2,3,4,6-Tetra-O-acetyl-1-thio-β-D-glucopyranosato)(tris(4-methoxyphenyl)phosphine) gold(I)] | – | – | – | – | – | – | – | – | – | – | – | – | 2/4 | – | – | – | – | – | – | > 3.03 |
| [β-D-galactopyranosyl-(1→4)-β-D-glucopyranosato](triethylphosphine) gold(I) [Compound 13] | 32.9 ± 4.6 | 190 (190) μM/mL | 381 (381) μM/mL | 381 (381) μM/mL | – | 24/48 | 5 (0.09) μM/mL | – | 24 (24) μM/mL | 381 (381) μM/mL | 381 (381) μM/mL | (0.4) μM/mL | 0.09 μM/mL | – | 190 (190) μM/mL | 24 (24) μM/mL | – | – | – | – |
| (Triphenylphosphine) gold chloride [Compound 31] | 12.0 ± 1.8 | >518 μM/mL | – | >518 μM/mL | – | – | 4 μM/mL | 1/2 | >518 μM/mL | – | >518 μM/mL | 4 (4) μM/mL | 4 (4) μM/mL | >3.94 | – | – | – | – | – | – |
| CC(=O)OCC1O[C@@H]([S][Au-][P+](c2ccc(F)cc2)(c2ccc(F)cc2)c2ccc(F)cc2)C(OC(C)=O)[C@@H](OC(C)=O)[C@@H]1OC(C)=O (stereo partly drawn) [Compound 39, (2,3,4,6-Tetra-O-acetyl-1-thio-β-D-glucopyranosato)(tris(4-fluorophenyl)phosphine)gold(I)] | – | – | – | – | – | – | – | – | – | – | – | – | 2/5 | – | – | – | – | – | – | > 3.04 |
